Test results: patent US20260356856A1, “KRAS G12S AND G12C INHIBITORS” (MIRATI THERAPEUTICS, INC., priority 2023, published 2026)

How the values were obtained:
KRas G12C = molecular target: T1, KRas G12C (Homo sapiens, UniProt P01116, G12C); experiment: KRas binding assay, TR-FRET displacement of Cy5 labelled tracer; conditions: 60-minute incubation at room temperature, 1% DMSO, pH 7.5
T1 construct: Biotinylated KRas (corresponding to amino acids 1-169, produced at Accelegan Inc.); biotin (biotinylated); purchased Accelegan Inc
T1 sequence (P01116 1-169 isoform P01116-2 G12C): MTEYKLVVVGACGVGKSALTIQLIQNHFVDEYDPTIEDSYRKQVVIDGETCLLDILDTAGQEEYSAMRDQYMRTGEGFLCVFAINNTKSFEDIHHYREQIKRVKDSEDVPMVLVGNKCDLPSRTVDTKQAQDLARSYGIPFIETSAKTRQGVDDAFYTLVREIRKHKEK
In short: (§1)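 Biotinylated KRas (aa 1-169) incubated with Cy5-labelled tracer, terbium streptavidin and compound (1% DMSO final) in 50 mM HEPES pH 7.5, 5 mM MgCl2, 0.005% Tween-20, 1 mM DTT. Tracer displacement read by TR-FRET after 60 min at room temperature; POC values fitted to 4-parameter IC50 equation.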

KRas G12S = molecular target: T2, KRas G12S (Homo sapiens, UniProt P01116, G12S); experiment: as above; conditions: 60-minute incubation at room temperature, 1% DMSO, pH 7.5
T2 construct: Biotinylated KRas (corresponding to amino acids 1-169, produced at Accelegan Inc.); biotin (biotinylated); purchased Accelegan Inc
T2 sequence (P01116 1-169 isoform P01116-2 G12S): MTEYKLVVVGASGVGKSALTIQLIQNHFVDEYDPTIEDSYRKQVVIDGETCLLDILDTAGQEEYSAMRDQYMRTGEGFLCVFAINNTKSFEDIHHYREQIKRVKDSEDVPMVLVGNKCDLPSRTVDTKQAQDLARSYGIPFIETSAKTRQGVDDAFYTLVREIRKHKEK
In short: as §1

KRas WT = molecular target: T3, KRas WT (Homo sapiens, UniProt P01116); experiment: as above; conditions: 60-minute incubation at room temperature, 1% DMSO, pH 7.5
T3 construct: Biotinylated KRas (corresponding to amino acids 1-169, produced at Accelegan Inc.); biotin (biotinylated); purchased Accelegan Inc
T3 sequence (P01116 1-169 isoform P01116-2): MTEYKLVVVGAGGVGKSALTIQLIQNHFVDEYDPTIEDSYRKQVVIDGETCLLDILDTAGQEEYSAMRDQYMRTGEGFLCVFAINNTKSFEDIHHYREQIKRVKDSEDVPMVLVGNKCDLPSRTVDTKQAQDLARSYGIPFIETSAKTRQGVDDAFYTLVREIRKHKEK
In short: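 TR-FRET tracer-displacement readout after 60 min at room temperature, using KRas residues 1-169 (biotinylated) with terbium streptavidin and a Cy5 tracer. Buffer: 50 mM HEPES pH 7.5, 5 mM MgCl2, 0.005% Tween-20, 1 mM DTT, 1% DMSO final. IC50 from 4-parameter fit of POC data.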

[1] = molecular target: T4, KRas-mediated phosphorylation of ERK in MKN1 cells (Homo sapiens, UniProt P01116); experiment: Inhibition of KRas-mediated phosphorylation of ERK (HTRF), MKN1 cells; format: cell-based; conditions: MKN1 cells (KRas WT); HTRF pERK; 3 h incubation
T4 construct: pERK HTRF read-out
T4 sequence (P01116 1-188 isoform P01116-2): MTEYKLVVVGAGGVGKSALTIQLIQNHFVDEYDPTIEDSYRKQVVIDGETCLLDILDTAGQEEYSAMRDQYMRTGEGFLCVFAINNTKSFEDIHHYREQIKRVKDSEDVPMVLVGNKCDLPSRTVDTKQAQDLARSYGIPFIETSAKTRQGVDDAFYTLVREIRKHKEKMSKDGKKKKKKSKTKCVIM
Procedure: Inhibition of KRas Phosphorylation of ERK (HTRF) by Exemplary Compounds of Formula (Ia) or (Ib)
Cisbio HTRF Advanced pERK Assay Catalog #64AERPEH • Cells: MKN1, PSN1 • Procedure: • 1. Day 1: Seed 6,000 cells/well −25 μl/well in 384-well white solid bottom plate; RPM1_10% FBS. Incubate overnight at 37 °C/5% CO2. • 2.

[2] = molecular target: T5, KRas-mediated phosphorylation of ERK in A549 cells (Homo sapiens, UniProt P01116, G12S); experiment: Inhibition of KRas-mediated phosphorylation of ERK (HTRF), A549 cells; format: cell-based; conditions: HTRF pERK, 3 h incubation
T5 construct: pERK HTRF read-out
T5 sequence (P01116 1-188 isoform P01116-2 G12S): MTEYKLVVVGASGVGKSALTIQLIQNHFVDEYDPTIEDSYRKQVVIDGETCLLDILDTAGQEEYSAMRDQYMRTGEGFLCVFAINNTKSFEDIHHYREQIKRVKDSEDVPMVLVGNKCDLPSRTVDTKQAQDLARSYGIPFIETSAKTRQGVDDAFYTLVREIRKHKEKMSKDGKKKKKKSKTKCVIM

[3] = molecular target: T6, KRas-mediated phosphorylation of ERK in H358 cells (Homo sapiens, UniProt P01116, G12C); experiment: Inhibition of KRas-mediated phosphorylation of ERK (HTRF), H358 cells; format: cell-based; conditions: HTRF pERK, 3 h incubation
T6 construct: pERK HTRF read-out
T6 sequence (P01116 1-188 isoform P01116-2 G12C): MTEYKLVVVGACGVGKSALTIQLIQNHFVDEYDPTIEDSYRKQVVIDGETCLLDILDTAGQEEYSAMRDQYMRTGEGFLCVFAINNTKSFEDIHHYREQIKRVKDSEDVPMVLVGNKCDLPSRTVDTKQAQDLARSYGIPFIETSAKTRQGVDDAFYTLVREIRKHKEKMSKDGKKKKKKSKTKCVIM

Structure (SMILES) | IC50 (KRas G12C) [nM] | IC50 (KRas G12S) [nM] | IC50 (KRas WT) [nM] | IC50 [1] [nM] | IC50 [2] [nM] | IC50 [3] [nM]
CN(CCCC(=O)N(C)c1ccncn1)c1nc(OC[C@@]23CCCN2C[C@H](F)C3)nc2c(F)c(-c3ccc(F)c4sc(N)c(C#N)c34)c(Cl)cc12 [Example 268, 4-((7-(2-amino-3-cyano-7-fluorobenzo[b]thiophen-4-yl)-6-chloro-8-fluoro-2-(((2R,7aS)-2-fluorotetrahydro-1H-pyrrolizin-7a(5H)-yl)methoxy)quinazolin-4-yl)(methyl)amino)-N-methyl-N-(pyrimidin-4-yl) butanamide] | 5 | 9 | 11 | 205 | 266 | 75
CN(CCCC(=O)Oc1ccc(F)cc1)c1nc(OC[C@@]23CCCN2C[C@H](F)C3)nc2c(F)c(-c3ccc(F)c4sc(N)c(C#N)c34)c(Cl)cc12 [Example 270, 4-fluorophenyl 4-((7-(2-amino-3-cyano-7-fluorobenzo[b]thiophen-4-yl)-6-chloro-8-fluoro-2-(((2R,7aS)-2-fluorotetrahydro-1H-pyrrolizin-7a(5H)-yl)methoxy)quinazolin-4-yl)(methyl)amino)butanoate] | 4 | 22 | 74 | 340 | 462 | 77
CN(CCCC(=O)Oc1ccc(F)cc1F)c1nc(OC[C@@]23CCCN2C[C@H](F)C3)nc2c(F)c(-c3ccc(F)c4sc(N)c(C#N)c34)c(Cl)cc12 [Example 271, 2,4-difluorophenyl 4-((7-(2-amino-3-cyano-7-fluorobenzo[b]thiophen-4-yl)-6-chloro-8-fluoro-2-(((2R,7aS)-2-fluorotetrahydro-1H-pyrrolizin-7a(5H)-yl)methoxy)quinazolin-4-yl)(methyl)amino)butanoate] | 4 | 16 | 81 | 177 | 139 | 31
Cc1ccn(C(=O)C2CCCN(c3nc(OC[C@@]45CCCN4C[C@H](F)C5)nc4c(F)c(-c5ccc(F)c6sc(N)c(C#N)c56)c(C(F)(F)F)cc34)CC2)n1 (stereo partly drawn) [Example 272, 2-amino-7-fluoro-4-(8-fluoro-2-(((2R,7aS)-2-fluorotetrahydro-1H-pyrrolizin-7a(5H)-yl)methoxy)-4-(4-(3-methyl-1H-pyrazole-1-carbonyl)azepan-1-yl)-6-(trifluoromethyl)quinazolin-7-yl)benzo[b]thiophene-3-carbonitrile] | 6 | 5 | 9 | 62 | 4 | 3
CCc1c(F)ccc2cc(O)cc(-c3ncc4c(N(C)CCC(=O)N(C)C(C)=O)nc(OC[C@@]56CCCN5C[C@H](F)C6)nc4c3F)c12 [Example 273, N-acetyl-3-((7-(8-ethyl-7-fluoro-3-hydroxynaphthalen-1-yl)-8-fluoro-2-(((2R,7aS)-2-fluorotetrahydro-1H-pyrrolizin-7a(5H)-yl)methoxy)pyrido[4,3-d]pyrimidin-4-yl)(methyl)amino)-N-methylpropanamide] | 30 | 40 | 58 | 340 | 745 | 494
CCc1c(F)ccc2cc(O)cc(-c3ncc4c(N5CCCCC(C(=O)N(C)C(C)=O)CC5)nc(OC[C@@]56CCCN5C[C@H](F)C6)nc4c3F)c12 (stereo partly drawn) [Example 275, N-acetyl-1-(7-(8-ethyl-7-fluoro-3-hydroxynaphthalen-1-yl)-8-fluoro-2-(((2R,7aS)-2-fluorotetrahydro-1H-pyrrolizin-7a(5H)-yl)methoxy)pyrido[4,3-d]pyrimidin-4-yl)-N-methylazocane-4-carboxamide] | 52 | 15 | 47 | 437 | 58 | 164
CCc1c(F)ccc2cc(O)cc(-c3ncc4c(N5CC6CC(C(=O)N(C)C(C)=O)C6C5)nc(OC[C@@]56CCCN5C[C@H](F)C6)nc4c3F)c12 (stereo partly drawn) [Example 277, N-acetyl-3-(7-(8-ethyl-7-fluoro-3-hydroxynaphthalen-1-yl)-8-fluoro-2-(((2R,7aS)-2-fluorotetrahydro-1H-pyrrolizin-7a(5H)-yl)methoxy)pyrido[4,3-d]pyrimidin-4-yl)-N-methyl-3-azabicyclo[3.2.0]heptane-6-carboxamide] | 864 | 539 | 357 | 2360 | 549 | 6510
CCc1c(F)ccc2cc(O)cc(-c3ncc4c(N5CC[C@H]6[C@@H](C5)[C@H]6C(=O)N(C)C(C)=O)nc(OC[C@@]56CCCN5C[C@H](F)C6)nc4c3F)c12 [Example 278, (1R,6S)-N-acetyl-3-(7-(8-ethyl-7-fluoro-3-hydroxynaphthalen-1-yl)-8-fluoro-2-(((2R,7aS)-2-fluorotetrahydro-1H-pyrrolizin-7a(5H)-yl)methoxy)pyrido[4,3-d]pyrimidin-4-yl)-N-methyl-3-azabicyclo[4.1.0]heptane-7-carboxamide] | 58 | 48 | 41 | 217 | 292 | 1180
CCc1c(F)ccc2cc(O)cc(-c3ncc4c(N5CC6CC(C(=O)N(C)C(C)=O)CC6C5)nc(OC[C@@]56CCCN5C[C@H](F)C6)nc4c3F)c12 (stereo partly drawn) [Example 279, N-acetyl-2-(7-(8-ethyl-7-fluoro-3-hydroxynaphthalen-1-yl)-8-fluoro-2-(((2R,7aS)-2-fluorotetrahydro-1H-pyrrolizin-7a(5H)-yl)methoxy)pyrido[4,3-d]pyrimidin-4-yl)-N-methyloctahydrocyclopenta[c]pyrrole-5-carboxamide] | 334 | 188 | 332 | 1690 | 276 | 4900

The next lines start with the values.

IC50 (KRas G12C) [nM] | IC50 (KRas G12S) [nM] | IC50 (KRas WT) [nM] | IC50 [1] [nM] | IC50 [2] [nM] | IC50 [3] [nM] | Structure (SMILES)
5 | 9 | 10 | 236 | 410 | 58 | CN(CCCC(=O)N(C)c1cccnc1)c1nc(OC[C@@]23CCCN2C[C@H](F)C3)nc2c(F)c(-c3ccc(F)c4sc(N)c(C#N)c34)c(Cl)cc12 [Example 266, 4-((7-(2-amino-3-cyano-7-fluorobenzo[b]thiophen-4-yl)-6-chloro-8-fluoro-2-(((2R,7aS)-2-fluorotetrahydro-1H-pyrrolizin-7a(5H)-yl)methoxy)quinazolin-4-yl)(methyl)amino)-N-methyl-N-(pyridin-3-yl) butanamide]
5 | 8 | 9 | 354 | 653 | 230 | CN(CCCC(=O)N(C)c1ccncc1)c1nc(OC[C@@]23CCCN2C[C@H](F)C3)nc2c(F)c(-c3ccc(F)c4sc(N)c(C#N)c34)c(Cl)cc12 [Example 267, 4-((7-(2-amino-3-cyano-7-fluorobenzo[b]thiophen-4-yl)-6-chloro-8-fluoro-2-(((2R,7aS)-2-fluorotetrahydro-1H-pyrrolizin-7a(5H)-yl)methoxy)quinazolin-4-yl)(methyl)amino)-N-methyl-N-(pyridin-4-yl) butanamide]
4 | 6 | 9 | 388 | 1180 | 411 | CN(CCCC(=O)Nc1ccncc1)c1nc(OC[C@@]23CCCN2C[C@H](F)C3)nc2c(F)c(-c3ccc(F)c4sc(N)c(C#N)c34)c(Cl)cc12 [Example 269, 4-((7-(2-amino-3-cyano-7-fluorobenzo[b]thiophen-4-yl)-6-chloro-8-fluoro-2-(((2R,7aS)-2-fluorotetrahydro-1H-pyrrolizin-7a(5H)-yl)methoxy)quinazolin-4-yl)(methyl)amino)-N-(pyridin-4-yl) butanamide]
65 | 89 | 51 | 287 | 326 | 662 | CCc1c(F)ccc2cc(O)cc(-c3ncc4c(N5CCC(C(=O)N(C)C(C)=O)C5)nc(OC[C@@]56CCCN5C[C@H](F)C6)nc4c3F)c12 (stereo partly drawn) [Example 274, N-acetyl-1-(7-(8-ethyl-7-fluoro-3-hydroxynaphthalen-1-yl)-8-fluoro-2-(((2R,7aS)-2-fluorotetrahydro-1H-pyrrolizin-7a(5H)-yl)methoxy)pyrido[4,3-d]pyrimidin-4-yl)-N-methylpyrrolidine-3-carboxamide]
129 | 68 | 148 | 1030 | 101 | 1480 | CCc1c(F)ccc2cc(O)cc(-c3ncc4c(N5CC(CC(=O)N(C)C(C)=O)C5)nc(OC[C@@]56CCCN5C[C@H](F)C6)nc4c3F)c12 [Example 276, N-acetyl-2-(1-(7-(8-ethyl-7-fluoro-3-hydroxynaphthalen-1-yl)-8-fluoro-2-(((2R,7aS)-2-fluorotetrahydro-1H-pyrrolizin-7a(5H)-yl)methoxy)pyrido[4,3-d]pyrimidin-4-yl)azetidin-3-yl)-N-methylacetamide]
